*: point of attachment. AMC = Cc1cc(=O)oc2cc(N*)ccc12; Boc = CC(C)(C)OC(=O)*; OBn = c1ccc(CO*)cc1
Tests used:
[1] = molecular target: T1, signal-FLAG-ARS-extracellular culture supernatant (SEQ ID NO:2 51st to 531st) (Homo sapiens, UniProt Q7Z410, INS90FVSSFQKTELEASCVGCSVLNYRDGNSSVLVHFQ); experiment: Enzymatic cleavage of MCA-labeled synthetic peptides by signal-FLAG-ARS-extracellular culture supernatant; type: biochemical; conditions: substrate 100 μM in TBS pH 7.5, 37° C.; never obtained with blank vector supernatant
T1 construct: made in house; host or cells: HEK293-EBNA
T1 sequence (Q7Z410 with tags, fused parts or gaps): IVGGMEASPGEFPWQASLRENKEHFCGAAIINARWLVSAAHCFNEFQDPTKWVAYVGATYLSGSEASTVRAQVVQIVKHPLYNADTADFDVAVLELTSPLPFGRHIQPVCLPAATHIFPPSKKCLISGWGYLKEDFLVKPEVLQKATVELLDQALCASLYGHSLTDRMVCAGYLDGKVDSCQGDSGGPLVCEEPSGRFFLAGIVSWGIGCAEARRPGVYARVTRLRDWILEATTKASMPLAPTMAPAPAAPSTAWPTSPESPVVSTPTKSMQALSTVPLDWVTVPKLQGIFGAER
T1 sequence (Q7Z410 with tags, fused parts or gaps INS90FVSSFQKTELEASCVGCSVLNYRDGNSSVLVHFQ): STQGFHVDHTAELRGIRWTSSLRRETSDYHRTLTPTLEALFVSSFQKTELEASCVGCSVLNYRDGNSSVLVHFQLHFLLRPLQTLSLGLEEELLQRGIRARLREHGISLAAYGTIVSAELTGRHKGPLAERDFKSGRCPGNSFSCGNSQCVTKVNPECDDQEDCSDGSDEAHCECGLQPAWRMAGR
Experimental: (§1) The expression plasmids prepared in Examples 3 to 5 were introduced into HEK293-EBNA cell (Invitrogen) using a transfection reagent (FuGENE™6 transfection reagent; Roche) according to the instruction attached thereto. After the introduction of the plasmids, the culture medium was replaced with a serum-free culture medium within 12 to 16 hours and further incubated for another 48 to 60 hours. The culture supernatant was collected and resulting each liquid culture was centrifuged (3000 rpm, 10 minutes) with a centrifuge (Type 8800; Kubota) to obtain culture supernatants. After removing the culture supernatants, the remaining cells were washed with phosphate buffer (PBS; 10 mM sodium phosphate, pH 7.5) and then recovered by scraping from the culture plate by pipetting with phosphate buffer, and centrifuged with a centrifuge (Type 8800; Kubota) at 3000 rpm for 10 minutes. The resulting precipitate was suspended in phosphate buffer, which was defined as the cell fraction. The culture supernatants obtained by the introduction of pCEP-ARSF-FLAG, pCEP-signal-FLAG-ARS-extracellular and pCEP-signal-FLAG-ARS-SerPD are referred to as ARS-FLAG culture supernatant, signal-FLAG-ARS-extracellular culture supernatant, signal-FLAG-ARS-SerPD culture supernatant and signal-FLAG-ARS-SerPDO culture supernatant, respectively.
(§2) The method for detecting enzymatic cleavage activity using a synthetic peptide labeled with MCA (4-methyl-coumaryl-7-amide) in the C terminus was according to the method reported in an academic paper (Yasuoka, S. et al., Am. J. Respir. Cell Mol Biol., Vol. 16, 300-308, 1997), unless otherwise described. […] Subsequently, the fluorescence of AMC (7-amino-4-methyl-coumarin) released from the synthetic peptide by enzymatic cleavage was measured at a wavelength of 460 nm for measurement, using an excitation wavelength of 390 nm with a fluorescent plate reader (Fluostar, SLT).

[2] = molecular target: T2, enzyme solution treated with trypsin beads (purified signal-FLAG-ARS-extracellular protein) (Homo sapiens, UniProt Q7Z410, INS90FVSSFQKTELEASCVGCSVLNYRDGNSSVLVHFQ); experiment: Substrate cleavage activity of purified protein solution treated with trypsin beads; type: biochemical; conditions: substrate 400 μM, ammonium hydrogen carbonate buffer, 37° C. for one hour
T2 construct: FLAG (N); made in house; host or cells: HEK293-EBNA
T2 sequence (Q7Z410 with tags, fused parts or gaps): T1 sequence (Q7Z410 with tags, fused parts or gaps)
T2 sequence (Q7Z410 with tags, fused parts or gaps INS90FVSSFQKTELEASCVGCSVLNYRDGNSSVLVHFQ): T1 sequence (Q7Z410 with tags, fused parts or gaps INS90FVSSFQKTELEASCVGCSVLNYRDGNSSVLVHFQ)
Experimental: By the same method as in Example 9, an enzyme solution treated with trypsin beads was obtained, using the purified protein solution. Then, the substrate cleavage activity of the enzyme solution was measured by the same method as in Example 8. Specifically, synthetic peptide substrates were diluted in ammonium hydrogen carbonate buffer to become a final concentration of 400 μM in a 96-well plate. After the enzyme solution described above was mixed into the resulting diluted substrates, the mixture were incubated at 37° C. for one hour. Subsequently, the fluorescence of AMC released from the synthetic peptide by enzymatic cleavage were measured.

[3] = molecular target: T3, signal-FLAG-ARS-SerPD culture supernatant (SEQ ID NO:2 237th to 531st) (Homo sapiens, UniProt Q7Z410); experiment: Enzymatic cleavage of MCA-labeled synthetic peptides by signal-FLAG-ARS-SerPD culture supernatant; type: biochemical; conditions: substrate 100 μM in TBS pH 7.5, 37° C.; never obtained with blank vector supernatant
T3 construct: made in house; host or cells: HEK293-EBNA
T3 sequence (Q7Z410 with tags, fused parts or gaps): T1 sequence (Q7Z410 with tags, fused parts or gaps)
Experimental: as §1, §2

[4] = tested on: ARS-FLAG culture supernatant (recombinant ARS protein, SEQ ID NO:2 1st to 531st); experiment: Enzymatic cleavage of MCA-labeled synthetic peptides by ARS-FLAG culture supernatant; type: biochemical, human; conditions: substrate 100 μM in TBS pH 7.5, 37° C.; never obtained with blank vector supernatant
Experimental: as §1, §2

[5] = molecular target: T4, signal-FLAG-ARS-SerPDO culture supernatant (SEQ ID NO:2 237th to 464th) (Homo sapiens, UniProt Q7Z410); experiment: Enzymatic cleavage of MCA-labeled synthetic peptides by signal-FLAG-ARS-SerPDO culture supernatant; type: biochemical; conditions: substrate 100 μM in TBS pH 7.5, 37° C.; never obtained with blank vector supernatant
T4 construct: made in house; host or cells: HEK293-EBNA
T4 sequence (Q7Z410 203-430): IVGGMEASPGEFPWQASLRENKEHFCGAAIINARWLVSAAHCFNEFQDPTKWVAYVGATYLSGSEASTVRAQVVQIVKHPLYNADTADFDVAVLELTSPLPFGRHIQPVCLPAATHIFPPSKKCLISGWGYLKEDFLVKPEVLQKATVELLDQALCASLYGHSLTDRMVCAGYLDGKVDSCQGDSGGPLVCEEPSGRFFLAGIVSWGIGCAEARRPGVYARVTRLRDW
Experimental: as §1, §2

cleavage activity of synthetic peptide (fluorescence of released AMC) [1] | cleavage of synthetic peptide by enzyme solution treated with trypsin beads (fluorescence of released AMC) [2] | cleavage activity of synthetic peptide (fluorescence of released AMC) [3] | cleavage activity of synthetic peptide (fluorescence of released AMC) [5] | Substance | cleavage activity of synthetic peptide (fluorescence of released AMC) [4]
showed the cleavage activity | cleaved | showed the cleavage activity | showed the cleavage activity | Boc-Glu(OBn)-Ala-Arg-{AMC} | showed the cleavage activity
showed the cleavage activity | cleaved | showed the cleavage activity | showed the cleavage activity | Boc-Phe-Ser-Arg-{AMC} | showed the cleavage activity
showed the cleavage activity | cleaved | showed the cleavage activity | showed the cleavage activity | Boc-Gln-Arg-Arg-{AMC} | showed the cleavage activity

— patent US20060134719A1, “Novel serine protease” (priority 2002, published 2006)
